The text below walks through data of ChEMBL document CHEMBL4028801, “A multifactorial approach to hepatobiliary transporter assessment enables improved therapeutic compound development” (Toxicol Sci, 2013).

Data set [1] deals with Bile salt export pump (Homo sapiens, UniProt O95342). The data set can be described thus: Inhibition of human BSEP overexpressed in Sf9 cell membrane vesicles assessed as uptake of [3H]-taurocholate in presence of ATP measured after 15 to 20 mins by membrane vesicle transport assay. The format is ADME, cell-based.
The target of data set [2] is ATP-binding cassette sub-family C member 2 (Homo sapiens, UniProt Q92887). As to the kind of experiment: Inhibition of human MRP2 overexpressed in Sf9 cell membrane vesicles assessed as uptake of [3H]-estradiol-17beta-D-glucuronide in presence of ATP and GSH measured after 20 mins by membrane vesicle transport assay.
The target of data set [3] is ATP-binding cassette sub-family C member 3 (Homo sapiens, UniProt O15438). As to the kind of experiment: Inhibition of human MRP3 overexpressed in Sf9 insect cell membrane vesicles assessed as uptake of [3H]-estradiol-17beta-D-glucuronide in presence of ATP and GSH measured after 10 mins by membrane vesicle transport assay. The format is ADME, cell-based.
Data set [4] concerns the target T1, ATP-binding cassette sub-family C member 4 (Homo sapiens, UniProt O15439).
T1 sequence (O15439 whole entry): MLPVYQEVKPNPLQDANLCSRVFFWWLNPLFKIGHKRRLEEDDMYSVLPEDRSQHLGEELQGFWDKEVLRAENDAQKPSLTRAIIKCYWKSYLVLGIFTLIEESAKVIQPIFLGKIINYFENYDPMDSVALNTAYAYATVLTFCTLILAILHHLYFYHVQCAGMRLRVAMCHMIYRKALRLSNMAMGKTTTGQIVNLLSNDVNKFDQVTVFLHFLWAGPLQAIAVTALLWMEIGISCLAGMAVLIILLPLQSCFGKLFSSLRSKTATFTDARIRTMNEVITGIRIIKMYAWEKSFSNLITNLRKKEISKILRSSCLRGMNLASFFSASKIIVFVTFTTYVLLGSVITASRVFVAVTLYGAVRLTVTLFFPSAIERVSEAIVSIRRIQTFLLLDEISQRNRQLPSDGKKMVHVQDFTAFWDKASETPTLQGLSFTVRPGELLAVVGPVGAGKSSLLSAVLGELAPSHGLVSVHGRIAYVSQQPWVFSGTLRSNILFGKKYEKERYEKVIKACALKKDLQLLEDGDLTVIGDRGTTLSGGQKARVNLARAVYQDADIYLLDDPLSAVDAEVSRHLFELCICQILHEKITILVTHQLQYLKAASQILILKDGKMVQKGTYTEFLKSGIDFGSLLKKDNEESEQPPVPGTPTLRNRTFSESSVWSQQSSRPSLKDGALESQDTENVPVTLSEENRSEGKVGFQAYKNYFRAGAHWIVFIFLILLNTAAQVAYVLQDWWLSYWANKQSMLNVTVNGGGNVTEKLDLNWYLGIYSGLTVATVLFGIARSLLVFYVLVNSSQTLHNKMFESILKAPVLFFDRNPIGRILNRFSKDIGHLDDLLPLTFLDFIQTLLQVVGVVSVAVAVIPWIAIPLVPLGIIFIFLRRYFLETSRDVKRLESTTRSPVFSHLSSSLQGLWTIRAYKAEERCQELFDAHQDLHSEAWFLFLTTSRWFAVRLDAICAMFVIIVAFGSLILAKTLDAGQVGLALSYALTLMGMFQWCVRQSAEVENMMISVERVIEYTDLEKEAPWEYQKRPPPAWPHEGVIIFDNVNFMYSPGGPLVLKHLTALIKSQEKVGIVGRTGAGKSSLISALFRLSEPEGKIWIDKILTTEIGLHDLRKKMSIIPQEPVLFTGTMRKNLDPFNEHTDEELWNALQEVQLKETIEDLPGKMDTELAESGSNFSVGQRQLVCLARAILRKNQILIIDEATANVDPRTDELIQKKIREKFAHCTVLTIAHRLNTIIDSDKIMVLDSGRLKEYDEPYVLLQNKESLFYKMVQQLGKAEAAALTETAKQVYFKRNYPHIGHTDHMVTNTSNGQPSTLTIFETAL
As to the kind of experiment: Inhibition of human MRP4 overexpressed in Sf9 cell membrane vesicles assessed as uptake of [3H]-estradiol-17beta-D-glucuronide in presence of ATP and GSH measured after 20 mins by membrane vesicle transport assay. The format is ADME, cell-based.

Data set [5] can be described thus: AUC in human at 1 to 1.5 g, po BID after 12 hrs. In kind it is ADME, organism-based. The settings on record: in vivo.
Data set [6] in a line: Drug concentration at steady state in human at 1 to 1.5 g, po BID after 12 hrs. The format is ADME, organism-based. The settings on record: in vivo, read-out: Css.
Data set [7] in a line: Ratio of drug concentration at steady state in human at 1 to 1.5 g, po BID after 12 hrs to IC50 for human BSEP overexpressed in Sf9 insect cells. The format is ADME, organism-based. The settings on record: in vivo.
The nature of data set [8]: Ratio of drug concentration at steady state in human at 1 to 1.5 g, po BID after 12 hrs to IC50 for human MRP4 overexpressed in Sf9 insect cells. The format is ADME, organism-based. The settings on record: in vivo.
Data set [9] in a line: AUC in human at 135 to 175 mg/m2, iv administered as infusion for 3 or 24 hrs measured after 1 hr. The settings on record: in vivo. Set-up: time < 1 hr, route intravenous. In kind it is ADME, organism-based.
In data set [10] the test system is Homo sapiens. As to the kind of experiment: Drug concentration at steady state in human at 135 to 175 mg/m2, iv administered as infusion for 3 or 24 hrs measured after 1 hr. The format is ADME, organism-based. The settings on record: in vivo.
Data set [11] in a line: AUC in human at 200 to 800 mg, po QD after 24 hrs. The settings on record: in vivo. The format is ADME, organism-based.
Data set [12] can be described thus: Drug concentration at steady state in human at 200 to 800 mg, po QD after 24 hrs. The format is ADME, organism-based. The settings on record: in vivo, read-out: Css.
A short description of data set [13]: Ratio of drug concentration at steady state in human at 200 to 800 mg, po QD after 24 hrs to IC50 for human BSEP overexpressed in Sf9 insect cells. In kind it is ADME, organism-based. The settings on record: in vivo.
Data set [14] in a line: Ratio of drug concentration at steady state in human at 200 to 800 mg, po QD after 24 hrs to IC50 for human MRP4 overexpressed in Sf9 insect cells. The format is ADME, organism-based. The settings on record: in vivo.
Data set [15] can be described thus: AUC in human at 15 to 60 mg, po QD after 24 hrs. The settings on record: in vivo. In kind it is ADME, organism-based.
Data set [16] is described as follows: Drug concentration at steady state in human at 15 to 60 mg, po QD after 24 hrs. In kind it is ADME, organism-based. The settings on record: in vivo, read-out: Css.
Data set [17] can be described thus: Ratio of drug concentration at steady state in human at 15 to 60 mg, po QD after 24 hrs to IC50 for human BSEP overexpressed in Sf9 insect cells. The format is ADME, organism-based. The conditions noted are these: in vivo.
A short description of data set [18]: Ratio of drug concentration at steady state in human at 15 to 60 mg, po QD after 24 hrs to IC50 for human MRP4 overexpressed in Sf9 insect cells. The format is ADME, organism-based. The settings on record: in vivo.
The nature of data set [19]: AUC in human at 600 mg, po BID after 12 hrs. The format is ADME, organism-based. Set-up: dose 600 mg, time < 12 hr, route oral. The settings on record: in vivo.
Data set [20] in a line: Drug concentration at steady state in human at 600 mg, po BID after 12 hrs. In kind it is ADME, organism-based. The settings on record: in vivo, read-out: Css.
Data set [21] can be described thus: AUC in human at 100 to 200 mg, po TID after 8 hrs. The settings on record: in vivo. In kind it is ADME, organism-based.
A short description of data set [22]: Drug concentration at steady state in human at 100 to 200 mg, po TID after 8 hrs. In kind it is ADME, organism-based. The settings on record: in vivo, read-out: Css.
Data set [23] is described as follows: Ratio of drug concentration at steady state in human at 100 to 200 mg, po TID after 8 hrs to IC50 for human BSEP overexpressed in Sf9 insect cells. The format is ADME, organism-based. The conditions noted are these: in vivo.
Data set [24] in a line: Ratio of drug concentration at steady state in human at 100 to 200 mg, po TID after 8 hrs to IC50 for human MRP3 overexpressed in Sf9 insect cells. The format is ADME, organism-based. The settings on record: in vivo.
Data set [25] is described as follows: Ratio of drug concentration at steady state in human at 100 to 200 mg, po TID after 8 hrs to IC50 for human MRP4 overexpressed in Sf9 insect cells. The format is ADME, organism-based. The conditions noted are these: in vivo.

The structures appear in SMILES notation. pIC50: −log10 of the molar value.

Sequence of ATP-binding cassette sub-family C member 2 (Q92887 whole entry): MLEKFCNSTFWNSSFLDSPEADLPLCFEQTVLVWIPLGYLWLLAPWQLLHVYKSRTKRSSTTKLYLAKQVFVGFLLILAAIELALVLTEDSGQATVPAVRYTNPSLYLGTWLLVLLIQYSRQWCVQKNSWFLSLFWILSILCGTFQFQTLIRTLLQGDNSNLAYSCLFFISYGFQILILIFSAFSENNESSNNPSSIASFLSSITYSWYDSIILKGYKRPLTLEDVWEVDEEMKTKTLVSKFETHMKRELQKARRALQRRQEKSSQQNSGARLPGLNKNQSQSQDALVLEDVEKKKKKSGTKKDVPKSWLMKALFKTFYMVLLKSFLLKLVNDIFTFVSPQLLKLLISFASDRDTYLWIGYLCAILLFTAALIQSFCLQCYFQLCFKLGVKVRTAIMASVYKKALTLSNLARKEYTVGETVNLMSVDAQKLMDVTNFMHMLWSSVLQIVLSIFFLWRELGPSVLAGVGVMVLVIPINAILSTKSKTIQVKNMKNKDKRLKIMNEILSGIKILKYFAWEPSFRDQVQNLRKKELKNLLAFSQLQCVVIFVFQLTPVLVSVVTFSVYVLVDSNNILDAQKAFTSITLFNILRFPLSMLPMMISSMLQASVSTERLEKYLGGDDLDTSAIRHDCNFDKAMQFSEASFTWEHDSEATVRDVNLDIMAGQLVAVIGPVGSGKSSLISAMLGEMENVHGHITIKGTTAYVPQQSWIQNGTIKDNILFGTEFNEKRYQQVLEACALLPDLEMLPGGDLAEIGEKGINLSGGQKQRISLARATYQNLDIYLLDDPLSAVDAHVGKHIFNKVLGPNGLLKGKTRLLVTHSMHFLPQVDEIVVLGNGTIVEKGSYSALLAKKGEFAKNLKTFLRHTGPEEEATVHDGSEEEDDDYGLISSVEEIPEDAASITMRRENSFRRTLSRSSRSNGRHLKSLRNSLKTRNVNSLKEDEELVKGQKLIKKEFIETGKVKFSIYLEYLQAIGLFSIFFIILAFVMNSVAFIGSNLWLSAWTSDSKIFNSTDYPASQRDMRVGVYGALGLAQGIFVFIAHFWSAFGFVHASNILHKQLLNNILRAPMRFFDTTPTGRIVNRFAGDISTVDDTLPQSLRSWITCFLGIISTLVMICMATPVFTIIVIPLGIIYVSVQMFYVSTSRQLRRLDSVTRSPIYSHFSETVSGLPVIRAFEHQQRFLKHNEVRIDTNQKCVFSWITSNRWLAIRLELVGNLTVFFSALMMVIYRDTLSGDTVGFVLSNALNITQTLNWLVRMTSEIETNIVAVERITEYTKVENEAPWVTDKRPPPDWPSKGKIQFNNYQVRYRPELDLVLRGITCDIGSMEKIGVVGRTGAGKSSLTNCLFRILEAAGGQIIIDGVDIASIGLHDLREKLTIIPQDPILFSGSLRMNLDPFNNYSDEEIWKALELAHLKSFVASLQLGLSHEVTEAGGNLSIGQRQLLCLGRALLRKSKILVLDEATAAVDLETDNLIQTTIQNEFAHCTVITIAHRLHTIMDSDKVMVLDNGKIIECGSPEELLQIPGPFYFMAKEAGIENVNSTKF
Sequence of ATP-binding cassette sub-family C member 3 (O15438 whole entry): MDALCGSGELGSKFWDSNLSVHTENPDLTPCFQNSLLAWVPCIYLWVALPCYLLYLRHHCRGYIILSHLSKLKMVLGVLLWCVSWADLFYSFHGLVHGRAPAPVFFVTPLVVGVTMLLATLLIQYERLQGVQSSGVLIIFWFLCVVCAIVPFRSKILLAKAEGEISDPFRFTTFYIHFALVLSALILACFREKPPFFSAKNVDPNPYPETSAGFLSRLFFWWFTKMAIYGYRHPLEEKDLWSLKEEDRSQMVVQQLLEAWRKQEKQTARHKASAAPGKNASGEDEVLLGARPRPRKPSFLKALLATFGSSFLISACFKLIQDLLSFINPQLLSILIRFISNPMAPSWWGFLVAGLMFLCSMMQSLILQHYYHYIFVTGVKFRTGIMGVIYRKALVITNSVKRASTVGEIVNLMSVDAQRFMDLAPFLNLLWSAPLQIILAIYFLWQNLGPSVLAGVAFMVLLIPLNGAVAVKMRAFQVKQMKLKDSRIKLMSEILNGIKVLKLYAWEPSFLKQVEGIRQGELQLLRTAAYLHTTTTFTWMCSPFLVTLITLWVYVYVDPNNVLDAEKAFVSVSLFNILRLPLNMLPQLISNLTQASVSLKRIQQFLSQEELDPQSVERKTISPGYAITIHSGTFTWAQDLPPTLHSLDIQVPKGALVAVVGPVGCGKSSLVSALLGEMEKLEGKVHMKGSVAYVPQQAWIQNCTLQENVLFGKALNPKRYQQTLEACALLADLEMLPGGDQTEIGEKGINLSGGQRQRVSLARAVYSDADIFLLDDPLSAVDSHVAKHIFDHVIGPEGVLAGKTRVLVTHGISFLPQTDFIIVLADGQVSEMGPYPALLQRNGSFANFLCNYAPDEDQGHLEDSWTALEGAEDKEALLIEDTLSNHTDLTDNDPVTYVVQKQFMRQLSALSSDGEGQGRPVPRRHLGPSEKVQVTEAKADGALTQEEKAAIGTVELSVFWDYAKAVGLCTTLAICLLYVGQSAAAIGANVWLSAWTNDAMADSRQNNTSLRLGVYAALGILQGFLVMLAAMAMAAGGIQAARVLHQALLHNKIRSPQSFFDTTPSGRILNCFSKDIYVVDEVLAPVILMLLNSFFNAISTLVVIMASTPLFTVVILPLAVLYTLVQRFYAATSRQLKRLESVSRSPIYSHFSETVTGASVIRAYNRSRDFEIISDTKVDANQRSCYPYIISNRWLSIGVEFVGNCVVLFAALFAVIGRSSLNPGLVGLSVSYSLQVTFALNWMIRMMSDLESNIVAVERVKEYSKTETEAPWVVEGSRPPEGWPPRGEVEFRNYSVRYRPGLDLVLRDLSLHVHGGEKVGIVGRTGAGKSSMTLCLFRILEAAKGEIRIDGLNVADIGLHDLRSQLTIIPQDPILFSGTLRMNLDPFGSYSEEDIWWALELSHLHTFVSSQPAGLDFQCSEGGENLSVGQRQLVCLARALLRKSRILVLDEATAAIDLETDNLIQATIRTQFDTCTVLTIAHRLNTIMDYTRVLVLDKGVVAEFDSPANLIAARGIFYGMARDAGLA
Sequence of Bile salt export pump (O95342 whole entry): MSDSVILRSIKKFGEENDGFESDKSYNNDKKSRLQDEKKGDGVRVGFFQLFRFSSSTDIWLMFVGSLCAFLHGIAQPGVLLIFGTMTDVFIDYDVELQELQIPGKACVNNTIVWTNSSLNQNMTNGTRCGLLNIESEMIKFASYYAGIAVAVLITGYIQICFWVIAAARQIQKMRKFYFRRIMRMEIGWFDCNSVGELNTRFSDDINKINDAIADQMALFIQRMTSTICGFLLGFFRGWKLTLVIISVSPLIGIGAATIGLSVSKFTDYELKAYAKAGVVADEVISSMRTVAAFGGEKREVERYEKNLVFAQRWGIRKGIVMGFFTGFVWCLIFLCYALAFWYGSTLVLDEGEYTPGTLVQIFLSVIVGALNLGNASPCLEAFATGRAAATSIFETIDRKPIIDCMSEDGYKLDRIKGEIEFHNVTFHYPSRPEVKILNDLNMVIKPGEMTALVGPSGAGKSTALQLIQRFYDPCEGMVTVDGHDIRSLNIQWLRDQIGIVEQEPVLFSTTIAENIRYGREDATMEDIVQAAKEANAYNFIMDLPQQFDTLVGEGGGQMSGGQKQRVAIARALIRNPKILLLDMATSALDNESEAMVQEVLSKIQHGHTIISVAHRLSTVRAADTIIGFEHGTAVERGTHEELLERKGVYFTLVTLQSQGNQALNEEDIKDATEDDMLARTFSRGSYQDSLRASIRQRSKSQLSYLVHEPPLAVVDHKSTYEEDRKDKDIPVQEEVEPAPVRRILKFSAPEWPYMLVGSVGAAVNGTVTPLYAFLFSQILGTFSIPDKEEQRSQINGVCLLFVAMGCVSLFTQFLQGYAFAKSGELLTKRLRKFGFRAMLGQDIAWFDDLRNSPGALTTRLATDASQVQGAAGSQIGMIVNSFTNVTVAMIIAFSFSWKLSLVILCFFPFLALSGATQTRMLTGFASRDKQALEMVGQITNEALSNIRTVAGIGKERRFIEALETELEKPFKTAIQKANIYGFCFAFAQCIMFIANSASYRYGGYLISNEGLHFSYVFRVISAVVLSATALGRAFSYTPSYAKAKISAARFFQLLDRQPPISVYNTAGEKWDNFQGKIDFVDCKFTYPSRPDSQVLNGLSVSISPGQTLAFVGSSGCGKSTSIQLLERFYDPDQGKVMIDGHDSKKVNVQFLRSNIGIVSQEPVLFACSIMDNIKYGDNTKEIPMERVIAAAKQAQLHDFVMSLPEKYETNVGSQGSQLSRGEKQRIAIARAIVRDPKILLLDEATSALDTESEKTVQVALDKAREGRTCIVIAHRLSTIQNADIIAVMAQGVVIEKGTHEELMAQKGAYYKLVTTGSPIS

Regarding `COc1c(C)c2c(c(O)c1C/C=C(\C)CCC(=O)OCCN1CCOCC1)C(=O)OC2` [MYCOPHENOLATE MOFETIL], the pIC50 (in general, the negative decadic logarithm of the IC50, by convention in mol/L) in data set [1] is 4.12; in data set [2], less than 3.88; in [3], less than 3.88; in data set [4] it was 4.08. In addition, the AUC – broadly, concentration integrated over time – at 12 h in data set [5] turned out to be 45700 ng·h/mL. Further, the concentration at 12 h in [6] stood at 3810 µM. Also, the Ratio in data set [7] came out at 49.945; in data set [8], 45.853.
For the compound `CC(=O)O[C@H]1C(=O)[C@@]2(C)[C@H]([C@H](OC(=O)c3ccccc3)[C@]3(O)C[C@H](OC(=O)[C@H](O)[C@@H](NC(=O)c4ccccc4)c4ccccc4)C(C)=C1C3(C)C)[C@]1(OC(C)=O)CO[C@@H]1C[C@@H]2O` [PACLITAXEL], the pIC50 in data set [2], in data set [3] and in data set [4] was less than 3.88 in each case. The compound also yielded an AUC at 1 h in data set [9] of 14.8 µM·h. Also, in data set [10], the Css was 14.759 µM.
As to `Cc1ccc(Nc2nccc(N(C)c3ccc4c(C)n(C)nc4c3)n2)cc1S(N)(=O)=O` [PAZOPANIB], the pIC50 was 4.99 in [1], less than 3.88 in data set [2], less than 3.88 in data set [3] and 5.09 in data set [4]. The compound further gave an AUC at 24 h in [11] of 2370 µM·h. For the same compound, in data set [12], the concentration at 24 h stood at 98.8 µM. Besides, the Ratio in data set [13] came out at 9.588; in data set [14] it was 12.192.
`CCc1ccc(CCOc2ccc(CC3SC(=O)NC3=O)cc2)nc1` (configuration not stated) [PIOGLITAZONE]: the figures for the pIC50 in [3] and in [4] were less than 3.88 and 4.31, respectively. The compound further had an AUC at 24 h in [15] of 22.4 µM·h. Further, the concentration at 24 h in [16] is 0.935 µM. In addition, the Ratio in data set [17] came to 2.338; in data set [18] it was 0.019.
For `CC(C)c1nc(CN(C)C(=O)N[C@H](C(=O)N[C@@H](Cc2ccccc2)C[C@H](O)[C@H](Cc2ccccc2)NC(=O)OCc2cncs2)C(C)C)cs1` [RITONAVIR], the AUC at 12 h in [19] came out at 413 µM·h. In addition, the concentration at 12 h in [20] turned out to be 34.4 µM.
In the case of `Cc1ccc(C(=O)c2cc(O)c(O)c([N+](=O)[O-])c2)cc1` [TOLCAPONE], the pIC50 in data set [1] is 4.44; in data set [3], 4.07; in data set [4] it was 4.78. Besides, the AUC at 8 h in data set [21] was 179 µM·h. In [22], the concentration at 8 h came out at 22.3 µM. In addition, the Ratio came to 0.611 in data set [23], 0.263 in [24] and 1.338 in data set [25].
